Marks after values point to notes of the source that are not given here.
Assays:
AMPK in Huh-7 cells = assay: Activation activity on AMPK in Huh-7 cells (Western Blot); format: cell-based; details: 10 μM, 12 h, Western Blot gray scale, relative to DMSO = 1
Method: The activation activity of a compound on AMPK in Huh-7 cells was detected by using Western Blot.
Cell culture conditions: Huh-7 cells were cultured in an incubator with 5% CO2 at 37° C. in DMEM complete medium (containing 10% fetal calf serum and 1% streptomycin/penicillin).
Antibody: anti-AMPK (CST, 2532S); anti-pAMPK (CST, 2535S).
Western Blot experiment: the influence of the compound on phosphorylation level of the AMPK in the Huh-7 cells was detected: cells with more than 90% cells alive were taken for the experiment. In a 12-well plate, the Huh-7 cells were plated in the plate at 250000 cells per well, the plate was placed in the incubator with 5% CO2 at 37° C. for culture, an original culture medium was discarded after 12 h, a complete medium containing the pentacyclic triterpenoid saponin was added, a final concentration of subject pentacyclic triterpenoid saponin was set to be 10 μM, and an administration time was set to be 12 h. A positive control compound employs AICAR (100 μM), metformin (70 μM) or A-769662 (100 μM). Then proteins were extracted for Western Blot detection.
Experimental result: a Western Blot experimental result was subjected to gray scale scanning, a p-AMPK/AMPK ratio of negative control DMSO was defined as 1, and a p-AMPK/AMPK ratio of the subject compound was a relative ratio of a negative control group. The larger the numerical value was, the stronger the activation activity of the AMPK of the compound was.

[1] = test system: high fat diet induced NASH model rats; assay: High fat diet (HFD) induced NASH rat model; format: in vivo; set-up: MDA: unit not given here
Method: Animal: 32 SD male rats of SPF level with 6 weeks old and 220 g were purchased from Beijing Vital River Laboratory Animal Technology Co., Ltd. All the animals maintained 12 h alternative circadian rhythm with free access to food.
Reagent: the ginsenoside Ro (I) was purchased from Shanghai Boka Chemistry Technology Co., Ltd; obeticholic acid (OCA) was purchased from Jiangsu Vcare PharmaTech Co., Ltd; high fat diets were purchased from Research Diets (D12492, 60 kcal %); and standard feeds were purchased from Research Diets (D12450B, 10 kcal %).
The rats were randomly divided into 4 groups based on the weight: a control group (CHOW), a high fat diet model group (HFD), a positive drug obeticholic acid (OCA, 5 mg/Kg) group (HFD+OCA) and a ginsenoside Ro (Ro for short, 5 mg/kg) group (HFD+Ro). The control group was fed with the standard feeds and drank water normally; and the rest groups were fed with the high fat diets, drank 10% aqueous sucrose solution for replacing the water and were modeled for 20 weeks.
After 20 weeks, the control group and the high fat diet model group were given with a CMC-Na solution with the volume fraction of 0.5% intragastrically every day, the HFD+OCA group was given with the obeticholic acid (5 mg/Kg) intragastrically every day, and the HFD+Ro was given with the ginsenoside Ro (5 mg/Kg) intragastrically every day. Administration was conducted for 8 weeks, during which, the control group was given with the standard feeds and drank the water normally, and the rest three groups were given with the high fat diets and drank 10% aqueous sucrose solution. The rats in each group were weighed every day, weights, hairs, feces and activity conditions were carefully observed and recorded.
The rats were deprived of food but not water for 12 h in advance; and the next morning, blood was taken from eye sockets, the rats were sacrificed, and livers were harvested. Right liver lobule tissues were fixed with 4% paraformaldehyde for HE stained slicing. A part of liver tissues were divided into 3 parts, which were snap-frozen in liquid nitrogen for subsequent detection of other indexes.
Whole blood was left to still standing for 2 h at room temperature, centrifugation was conducted for 15 min at 3000 rpm, and a serum was collected. 100 Mg of liver tissues were taken and homogenized with 0.9 mL of precooled normal saline, a homogenate was centrifuged for 15 min at 4° C. and 3000 rpm, and a supernatant was taken. Both of the serum and the supernatant were sent to Pathologic Department of Hospital of Integrated Traditional Chinese and Western Medicine in Jiangsu Province for determination of levels of triglyceride (TG), total cholesterol (TC), low density lipoprotein cholesterin (LDL-c) and high density lipoprotein cholesterol (HDL-c) in the serum and levels of the TG and the TC in the supernatant of the homogenate of the liver tissues with the full-automatic biochemical analyzer.
Pretreated tissues were sent to Google Biotechnology Co., Ltd for preparing HE stained slices and oil red stained slices.
Liver tissues preserved at −80° C. were put in the liquid nitrogen, about 10 mg of the liver tissues were quickly dissected out, 500 μL of precooled tissue lysate was added, and the tissues were homogenized with a homogenizer and then left to lyse on ice for 30 min; and centrifugation was conducted for 15min at 4° C. and 12000 rpm, […] of a supernatant was sucked to a clean EP tube, […] of the supernatant was taken for BCA protein quantification, […] of 5*loading buffer was added in the rest protein supernatant for denaturing by boiling, SDS-PAGE electrophoresis was conducted subsequently, the proteins were transferred onto a PVDF membrane, then incubation and elution of a relevant antibody were conducted, and finally, a chemiluminescence apparatus was employed for imaging analysis.

[2] = test system: human ADPKD cyst lining epithelial cell lines WT9-12; assay: Proliferation of polycystic kidney epithelial cells (CCK-8 method); format: cell-based; details: polycystic kidney epithelial cells; 10 μM, 48 h; CCK-8; n = 6
Text: Cell and reagent: complete media for human ADPKD cyst lining epithelial cell lines WT9-12 and DMEM were purchased from ATCC Company; fetal calf serums were purchased from Gibco Company; Cell Counting Kit-8 was purchased from DOJINDO Company; Click-iT® EdU Imaging Kits were purchased from Invitrogen™ Thermo Fisher Scientific Company; Caspase -3/CPP32 Colorimetric Assay Kit was purchased from BioVision Company; Annexin V/PI double-staining flow type cell apoptosis detection kits were purchased from Bender Company; and anti-Phospho-(AMPKa, mTOR, p70S6K, 4E-BP1) antibodies were purchased from Cell Signaling Technology Company.
The influence of 2-DG on proliferation of the polycystic kidney epithelial cells was detected with a CCK-8 method: a DMEM complete medium containing 10% fetal calf serum (FBS) was prepared. The polycystic kidney epithelial cells were cultured in an incubator with 5% CO2 at 37° C. after being recovered, a solution was replaced every other day, the polycystic kidney epithelial cells were passaged every 2-3 days, and the cells were in a growing state of adhering to the wall. After trypsin enzyme digestion, cells were resuspended by using a complete medium, the concentration of a polycystic kidney epithelial cell suspension was regulated to be 3×10^7/L, the polycystic kidney epithelial cell suspension was inoculated to 96-well plate by […] per well for culture for 24 h, and the suspension was replaced by a culture medium containing 0.1% FBS for synchronization for 24 h.

[3] = HFD NASH rats, summary in words
[4] = HFD induced NASH model rats, 5 mg/Kg, n = 8
[5] = serum of HFD induced NASH model rats, 5 mg/Kg, n = 8

## madecassoside [(VI)]
AMPK in Huh-7 cells
  pAMPK/AMPK ratio: 2.27
[1]; [3]
  inflammatory responses of the livers: inhibit
  lipid accumulation, caused by the high fat diets, of the rat livers: effectively lower
[1]; [4]
  Liver TC: 0.472 ± 0.201** mmoL/gprot
  Liver TG: 1.240 ± 0.213** mmoL/gprot
  Serum LDL-c: 47.25 ± 7.45* mg/dL
  Serum TG: 18.83 ± 4.11** mg/dL
[1]; [5]
  ALT: 65.86 ± 10.43*** U/L
  AST: 127.21 ± 9.34* U/L
  MDA: 11.59 ± 2.88*
[2]
  Inhibition rate (%): 76.3 ± 2.3 %

Reference: US20220331348A1, “METHOD OF PREPARING PENTACYCLIC TRITERPENOID SAPONINS AND DRUG COMPOSITION” (CHINA PHARMACEUTICAL UNIVERSITY, priority 2019, published 2022)
